Data on 16 molecules can be found in ChEMBL document CHEMBL1145316, “Synthesis of novel tricyclic oxazolidinones by a tandem SN2 and SNAr reaction: SAR studies on conformationally constrained analogues of Linezolid” (2006).

Holding throughout (assay type): functional
Test [1] concerns Enterococcus faecalis. In words: Antibacterial activity against vancomycin-sensitive Enterococcus faecalis ATCC 29212.
For test [2], the system named is Staphylococcus aureus. Description: Antibacterial activity against methicillin-resistant Staphylococcus aureus ATCC 33591.
Test [3] deals with Staphylococcus aureus. In words: Antibacterial activity against Staphylococcus aureus ATCC 49951.
The test system of another test is Enterococcus faecium. Description: Antibacterial activity against vancomycin-resistant Enterococcus faecium ATCC 12202.
Test [4] deals with Enterococcus faecalis. In words: Antibacterial activity against vancomycin-resistant Enterococcus faecalis NCTC 12201.
In test [5] the test system is Staphylococcus aureus. In words: Antibacterial activity against Staphylococcus aureus ATCC 29213.

SMILES strings stand for the structures. In brackets after ≈: the same amount, converted by molar mass.

With `CC(=O)NC[C@H]1CN(c2ccc3c(c2)N(C(=O)CCl)C[C@@H]2CCCN32)C(=O)O1`, the MIC against Enterococcus faecalis [1], against Staphylococcus aureus [2], in the test with Staphylococcus aureus [3], with Enterococcus faecium, in the test on Enterococcus faecalis [4] and with Staphylococcus aureus [5] was above 256 µg/mL each time.
In the case of `COC(=S)NC[C@H]1CN(c2cc(F)c3c(c2)N(C)C[C@@H]2CCCN32)C(=O)O1`, the MIC (in general, the smallest concentration in the dilution series that meets the test's criterion for growth inhibition) was above 32 µg/mL with Enterococcus faecalis [1]; above 32 µg/mL in the test on Staphylococcus aureus [2]; above 32 µg/mL in the test with Staphylococcus aureus [3]; 32 µg/mL (≈ 81.1 µM) against Enterococcus faecium; above 32 µg/mL with Enterococcus faecalis [4]; above 32 µg/mL in the test with Staphylococcus aureus [5].
With `CN[C@H](CC(C)C)C(=O)N[C@H]1C(=O)N[C@@H](CC(N)=O)C(=O)N[C@H]2C(=O)N[C@H]3C(=O)N[C@H](C(=O)N[C@H](C(=O)O)c4cc(O)cc(O)c4-c4cc3ccc4O)[C@H](O)c3ccc(c(Cl)c3)Oc3cc2cc(c3O[C@@H]2O[C@H](CO)[C@@H](O)[C@H](O)[C@H]2O[C@H]2C[C@](C)(N)[C@H](O)[C@H](C)O2)Oc2ccc(cc2Cl)[C@H]1O` [VANCOMYCIN], the figures for the MIC with Enterococcus faecalis [1], against Enterococcus faecium and against Enterococcus faecalis [4] were 2 µg/mL (≈ 1.38 µM), above 32 µg/mL and above 32 µg/mL, respectively.
As for `CC(=O)NC[C@H]1CN(c2cc(F)c3c(c2)SC[C@@H]2CCCN32)C(=O)O1`, the MIC in the test with Enterococcus faecalis [1] was determined as 2 µg/mL (≈ 5.47 µM); against Staphylococcus aureus [2] it was 1 µg/mL (≈ 2.74 µM); in the test with Staphylococcus aureus [3] it was 1 µg/mL (≈ 2.74 µM); against Enterococcus faecium, 2 µg/mL (≈ 5.47 µM); against Enterococcus faecalis [4], 1 µg/mL (≈ 2.74 µM); in the test on Staphylococcus aureus [5], 2 µg/mL (≈ 5.47 µM).
For the molecule `CC(=O)NC[C@H]1CN(c2cc(F)c3c(c2)N(C)C[C@@H]2CCCN32)C(=O)O1`, the MIC was above 32 µg/mL against Enterococcus faecalis [1]; above 32 µg/mL against Staphylococcus aureus [2]; above 32 µg/mL with Staphylococcus aureus [3]; 32 µg/mL (≈ 88.3 µM) against Enterococcus faecium; above 32 µg/mL in the test on Enterococcus faecalis [4]; above 32 µg/mL in the test on Staphylococcus aureus [5].
Regarding `C/C(S)=N/C[C@H]1CN(c2cc(F)c3c(c2)SC[C@@H]2CCCN32)C(=O)O1`, the minimal inhibitory concentration (MIC) was 0.5 µg/mL (≈ 1.31 µM) against Enterococcus faecalis [1]; 0.25 µg/mL (≈ 0.655 µM) with Staphylococcus aureus [2]; 0.5 µg/mL (≈ 1.31 µM) against Staphylococcus aureus [3]; 0.25 µg/mL (≈ 0.655 µM) against Enterococcus faecium; 0.25 µg/mL (≈ 0.655 µM) against Enterococcus faecalis [4]; 0.5 µg/mL (≈ 1.31 µM) with Staphylococcus aureus [5].
For `CC(=O)NC[C@H]1CN(c2ccc3c(c2)N(C=O)C[C@@H]2CCCN32)C(=O)O1`, the minimum inhibitory concentration (MIC) in the test with Enterococcus faecalis [1], with Staphylococcus aureus [2], in the test on Staphylococcus aureus [3], against Enterococcus faecium, in the test on Enterococcus faecalis [4] and in the test with Staphylococcus aureus [5] was above 256 µg/mL each time.
For `CNC(=S)NC[C@H]1CN(c2cc(F)c3c(c2)SC[C@@H]2CCCN32)C(=O)O1`, the minimum inhibitory concentration (MIC) was 1 µg/mL (≈ 2.52 µM) against Enterococcus faecalis [1]; 0.5 µg/mL (≈ 1.26 µM) in the test with Staphylococcus aureus [2]; 0.5 µg/mL (≈ 1.26 µM) against Staphylococcus aureus [3]; 1 µg/mL (≈ 2.52 µM) against Enterococcus faecium; 0.5 µg/mL (≈ 1.26 µM) against Enterococcus faecalis [4]; 2 µg/mL (≈ 5.04 µM) against Staphylococcus aureus [5].
Consider `COC(=S)NC[C@H]1CN(c2ccc3c(c2)SC[C@@H]2CCCN32)C(=O)O1`, for which the MIC amounted to 0.25 µg/mL (≈ 0.659 µM) in the test with Enterococcus faecalis [1]; 0.25 µg/mL (≈ 0.659 µM) with Staphylococcus aureus [2]; 1 µg/mL (≈ 2.63 µM) against Staphylococcus aureus [3]; 0.5 µg/mL (≈ 1.32 µM) against Enterococcus faecium; 0.25 µg/mL (≈ 0.659 µM) against Enterococcus faecalis [4]; 0.5 µg/mL (≈ 1.32 µM) with Staphylococcus aureus [5].
As to `COC(=S)NC[C@H]1CN(c2cc(F)c3c(c2)SC[C@@H]2CCCN32)C(=O)O1`, the MIC with Enterococcus faecalis [1] was found to be 1 µg/mL (≈ 2.52 µM); against Staphylococcus aureus [2] it was 0.5 µg/mL (≈ 1.26 µM); in the test on Staphylococcus aureus [3], 1 µg/mL (≈ 2.52 µM); in the test with Enterococcus faecium it was 0.5 µg/mL (≈ 1.26 µM); in the test with Enterococcus faecalis [4], 0.5 µg/mL (≈ 1.26 µM); against Staphylococcus aureus [5], 1 µg/mL (≈ 2.52 µM).
As for `CC(=O)NC[C@H]1CN(c2ccc3c(c2)N(C(C)=O)C[C@@H]2CCCN32)C(=O)O1`, the MIC in the test on Enterococcus faecalis [1], in the test with Staphylococcus aureus [2], against Staphylococcus aureus [3], with Enterococcus faecium, against Enterococcus faecalis [4] and with Staphylococcus aureus [5] was above 256 µg/mL in each case.
Regarding `CC(=O)NC[C@H]1CN(c2ccc(N3CCOCC3)c(F)c2)C(=O)O1` [LINEZOLID], the figures for the MIC against Staphylococcus aureus [2] and with Enterococcus faecium were 1 µg/mL (≈ 2.96 µM) and 2 µg/mL (≈ 5.93 µM), respectively.
As to `CC(=O)NC[C@H]1CN(c2ccc3c(c2)OC[C@@H]2CCCN32)C(=O)O1`, the MIC came to 16 µg/mL (≈ 48.3 µM) in the test on Enterococcus faecalis [1]; 4 µg/mL (≈ 12.1 µM) against Staphylococcus aureus [2]; 4 µg/mL (≈ 12.1 µM) in the test with Staphylococcus aureus [3]; 16 µg/mL (≈ 48.3 µM) in the test on Enterococcus faecium; 16 µg/mL (≈ 48.3 µM) against Enterococcus faecalis [4]; 8 µg/mL (≈ 24.1 µM) with Staphylococcus aureus [5].
With `CC(=O)NC[C@H]1CN(c2ccc3c(c2)SC[C@@H]2CCCN32)C(=O)O1`, the MIC against Enterococcus faecalis [1], against Staphylococcus aureus [2], against Staphylococcus aureus [3], against Enterococcus faecium, in the test with Enterococcus faecalis [4] and with Staphylococcus aureus [5] was 8 µg/mL (≈ 23 µM) throughout.
As to `CC(=O)NC[C@H]1CN(c2ccc3c(c2)S(=O)(=O)C[C@@H]2CCCN32)C(=O)O1`, the MIC against Enterococcus faecalis [1], against Staphylococcus aureus [2], in the test with Staphylococcus aureus [3], in the test on Enterococcus faecium, against Enterococcus faecalis [4] and in the test on Staphylococcus aureus [5] was above 32 µg/mL throughout.
Take `CC(=O)NC[C@H]1CN(c2ccc3c(c2)N(C(=O)OCc2ccccc2)C[C@@H]2CCCN32)C(=O)O1`: the MIC in the test with Enterococcus faecalis [1], against Staphylococcus aureus [2], in the test with Staphylococcus aureus [3], with Enterococcus faecium, in the test with Enterococcus faecalis [4] and in the test on Staphylococcus aureus [5] was above 32 µg/mL each time.
